Data on 41 compounds can be found in patent publication US11725000B2, “Apoptosis inhibitors” (National Institute of Biological Sciences, Beijing, priority 2017, dated 2023).

Structures are written as SMILES.

The first test has as its system U2OS_Bim cells. In words: Apoptosis inhibition assay (Bim-induced apoptosis, cell viability by ATP level). The class given is cell-based.
Settings: not given
The essentials:
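Apoptosis was triggered by doxycycline (0.1 μg/mL) induction of Bim, one hour after compound addition to U2OS_Bim cells. Survival was measured after 24 h from cellular ATP (CellTiter-Glo), relative to DMSO, with zVAD at 20 μM as rescue control. Data are duplicate means, some estimated from preliminary results.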
Usually EC50 stands for the concentration needed to bring the measured effect to its halfway point. The compound `CS(=O)(=O)c1nc(-c2ccc(=O)n(Cc3ccccc3)c2)cc(C(F)(F)F)n1` [Compound 103, 1-Benzyl-5-(2-(methylsulfonyl)-6-(trifluoromethyl)pyrimidin-4-yl)pyridin-2 (1H)-one] showed a concentration giving a half-maximal response (EC50) of 1 to 10 µM.

The test is the same for the next values; noted with them: U2OS_Bim cells; estimated (*Est.) / preliminary results; numbering of Tables 4a/4b; read-out: EC50.
In the case of `Cc1cc(-c2cc(F)c(=O)n(Cc3ccc4ccn(C)c4c3)c2)nc(S(=O)(=O)CCC(OCc2ccccc2F)c2ccccc2)n1` (centres unmarked) [Compound 348], the EC50 is 0.001 to 1 µM.

For the compound `Cc1cc(-c2cc(F)c(=O)n(Cc3ccc4c(c3)OCO4)c2)nc(S(=O)(=O)CCC(OCc2ccccc2F)c2ccc3ncn(C)c3c2)n1` (centres unmarked) [Compound 393], the half-maximal effective concentration (EC50) is 0.001 to 1 µM.

In the case of `Cc1cc(-c2cc(F)c(=O)n(Cc3ccc4c(c3)OCO4)c2)nc(S(=O)(=O)CCC(OCc2ccccc2F)c2cccnc2)n1` (centres unmarked) [Compound 384], the EC50 was 0.001 to 1 µM.

Take `Cc1cc(-c2cc(F)c(=O)n(Cc3ccc4c(c3)OCO4)c2)nc(S(=O)(=O)CCC(OCc2cnco2)c2ccccc2)n1` (centres unmarked) [Compound 408]: the concentration giving a half-maximal response (EC50) was 0.001 to 1 µM.

Turning to `Cc1cc(-c2cc(F)c(=O)n(Cc3ccc4[nH]c(=O)[nH]c4c3)c2)nc(S(=O)(=O)CCC(OCc2ccccc2F)c2ccccc2)n1` (centres unmarked) [Compound 341], the EC50 was 0.001 to 1 µM.

As for `Cc1cc(-c2cc(F)c(=O)n(Cc3ccc4c(c3)OCO4)c2)nc(S(=O)(=O)CCC(OCc2ccccc2F)c2ccc3ncoc3c2)n1` (centres unmarked) [Compound 395], the EC50 is 0.001 to 1 µM.

In the case of `Cc1cc(-c2cc(F)c(=O)n(Cc3ccc4c(c3)OCO4)c2)nc(S(=O)(=O)CCCC(=O)N(c2ccccc2)C2CC2)n1` [Compound 372], the EC50 was 0.001 to 1 µM.

Regarding `Cc1cc(-c2cc(F)c(=O)n(Cc3ccc4c(c3)OCO4)c2)nc(S(=O)(=O)CCCN(c2ccccc2)C2CCC2)n1` [Compound 376], the EC50 is 0.001 to 1 µM.

As to `Cc1cc(-c2cc(F)c(=O)n(Cc3ccc4c(c3)OCO4)c2)nc(S(=O)(=O)CCC(OCc2ccccc2F)c2ccco2)n1` (centres unmarked) [Compound 388], the EC50 is 0.001 to 1 µM.

As to `Cc1cc(-c2cc(F)c(=O)n(Cc3ccc4c(c3)NCCN4)c2)nc(S(=O)(=O)CCC(OCc2ccccc2F)c2ccccc2)n1` (centres unmarked) [Compound 346], the EC50 was 0.001 to 1 µM.

On to `Cc1cc(-c2cc(F)c(=O)n(Cc3ccc4c(c3)CC(=O)N4)c2)nc(S(=O)(=O)CCC(OCc2ccccc2F)c2ccccc2)n1` (centres unmarked) [Compound 350], for which the concentration giving a half-maximal response (EC50) is 0.001 to 1 µM.

The test is the same for the next values; noted with them: U2OS_Bim cells; estimated based on preliminary results; numbering of Tables 4a/4b; read-out: EC50.
Regarding `CCc1ccc(Cn2cc(-c3cc(C(F)(F)F)nc([S+](C)[O-])n3)ccc2=O)cc1OC` (centres unmarked) [Compound 265], the concentration for a half-maximal effect (EC50) was below 10 µM.

With `COc1ccc(Cn2cc(-c3cc(C(F)(F)F)nc([S+]([O-])CN4CCCC4)n3)ccc2=O)cc1OC` (centres unmarked) [Compound 198], the EC50 was below 10 µM.

As for `C[S+]([O-])c1nc(-c2ccc(=O)n(Cc3ccc4c(c3)OCCN4)c2)cc(C(F)(F)F)n1` (centres unmarked) [Compound 241], the EC50 was below 10 µM.

`COc1cn(Cn2cc(-c3cc(C(F)(F)F)nc([S+](C)[O-])n3)ccc2=O)cc1OC` (centres unmarked) [Compound 259]: the EC50 is below 10 µM.

Regarding `CS(=O)(=O)c1nc(-c2ccc(=O)n(Cc3ccc4c(c3)NCCO4)c2)cc(C(F)(F)F)n1` [Compound 242], the EC50 is below 10 µM.

Turning to `COc1cn(Cn2cc(-c3cc(C(F)(F)F)nc(S(C)(=O)=O)n3)ccc2=O)cc1OC` [Compound 258], the EC50 is below 10 µM.

For the compound `CS(=O)(=O)c1nc(-c2ccc(=O)n(Cc3ccc4c(c3)OCCO4)c2)cc(C(F)(F)F)n1` [Compound 230], the EC50 was below 10 µM.

Still in this test, the particulars now being: U2OS_Bim cells; means of duplicates; numbering of Tables 4a/4b; read-out: EC50.
With `COc1ccc(Cn2cc(-c3cc(-c4ccccc4F)nc([S+]([O-])CCC(OCc4ccccc4)c4ccccc4)n3)ccc2=O)cc1OC` (centres unmarked) [Compound 297, 5-(2-((3-(benzyloxy)-3-phenylpropyl)sulfinyl)-6-(2-fluorophenyl)pyrimidin-4-yl)-1-(3,4-dimethoxybenzyl)pyridin-2 (1H)-one], the EC50 is below 100 µM.

For `CS(=O)(=O)c1nc(-c2ccccc2C#N)cc(C(F)(F)F)n1` [Compound 55, 2-(2-(methylsulfonyl)-6-(trifluoromethyl)pyrimidin-4-yl)benzonitrile], the EC50 is 1 to 20 µM.

Regarding `CS(=O)(=O)c1nc(-c2cccs2)cc(-n2cccn2)n1` [Compound 36, 2-(methylsulfonyl)-4-(1H-pyrazol-1-yl)-6-(thiophen-2-yl)pyrimidine], the half-maximal effective concentration (EC50) was in the range of 1 to 10 µM.

With `COc1cccc(-c2cc(C(F)(F)F)nc(S(C)(=O)=O)n2)c1` [Compound 52], the EC50 is below 100 µM.

In the case of `CS(=O)(=O)c1nc(-c2ccc(F)cc2)cc(C(F)(F)F)n1` [Compound 45, 4-(4-fluorophenyl)-2-(methylsulfonyl)-6-(trifluoromethyl)pyrimidine], the EC50 was in the range of 1 to 10 µM.

In the case of `CS(=O)(=O)c1nc(-c2ccc(=O)n(Cc3ccc4c(c3Br)OCO4)c2)cc(C(F)(F)F)n1` [Compound 137, 1-((4-bromobenzo[d][1,3]dioxol-5-yl)methyl)-5-(2-(methylsulfonyl)-6-(trifluoromethyl)pyrimidin-4-yl)pyridin-2 (1H)-one], the EC50 fell in the range of 0.001 to 1 µM.

As for `COc1ccc(Cn2cc(-c3cc(C(F)F)nc(S(=O)(=O)c4cccc(NC(C)=O)c4)n3)ccc2=O)cc1OC` [Compound 182, N-(3-((4-(difluoromethyl)-6-(1-(3,4-dimethoxybenzyl)-6-oxo-1,6-dihydropyridin-3-yl)pyrimidin-2-yl)sulfonyl)phenyl)acetamide], the EC50 was 0.001 to 1 µM.

With `CCOc1cccc(Cn2cc(-c3cc(C)nc([S+]([O-])CCC(OCc4ccc(F)cc4F)c4ccccc4)n3)cc(F)c2=O)c1` (centres unmarked) [Compound 310, 5-(2-((3-((2,4-difluorobenzyl)oxy)-3-phenylpropyl)sulfinyl)-6-methylpyrimidin-4-yl)-1-(3-ethoxybenzyl)-3-fluoropyridin-2 (1H)-one], the EC50 fell in the range of 1 to 10 µM.

Take `C[S+]([O-])c1nc(-c2cccc3ccccc23)cc(C(F)(F)F)n1` (centres unmarked) [Compound 77, 2-(methylsulfinyl)-4-(naphthalen-1-yl)-6-(trifluoromethyl)pyrimidine]: the EC50 was below 100 µM.

In the case of `COc1ccc(Cn2cc(-c3cc(C(C)(F)F)nc(S(C)(=O)=O)n3)ccc2=O)cc1OC` [Compound 164, 5-(6-(1,1-difluoroethyl)-2-(methylsulfonyl)pyrimidin-4-yl)-1-(3,4-dimethoxybenzyl)pyridin-2 (1H)-one], the EC50 was 0.001 to 1 µM.

Turning to `CCCOc1cccc(Cn2cc(-c3cc(C(F)(F)F)nc([S+](C)[O-])n3)ccc2=O)c1` (centres unmarked) [Compound 114, 5-(2-(methylsulfinyl)-6-(trifluoromethyl)pyrimidin-4-yl)-1-(3-propoxybenzyl)pyridin-2 (11H)-one], the EC50 lay in the range of 1 to 10 µM.

Take `CS(=O)(=O)c1nc(-c2ccc(=O)n(Cc3ccc(-n4cccn4)cc3)c2)cc(C(F)(F)F)n1` [Compound 132, 1-(4-(1H-pyrazol-1-yl)benzyl)-5-(2-(methylsulfonyl)-6-(trifluoromethyl)pyrimidin-4-yl)pyridin-2 (1H)-one]: the EC50 lay in the range of 0.001 to 1 µM.

`C[S+]([O-])c1nc(-c2cccc(Oc3ccccc3)c2)cc(C(F)(F)F)n1` (centres unmarked) [Compound 74, 2-(methylsulfinyl)-4-(3-phenoxyphenyl)-6-(trifluoromethyl)pyrimidine]: the EC50 is below 100 µM.

Turning to `Cc1cc(-c2cc(F)c(=O)n(Cc3ccc4c(c3)no[n+]4[O-])c2)nc(S(=O)(=O)CCC(OCc2ccccc2F)c2ccccc2)n1` (centres unmarked) [Compound 323], the EC50 was in the range of 0.001 to 1 µM.

For the compound `COc1ccc(Cn2cc(-c3cc(C(F)F)nc([S+]([O-])c4cccc(N)c4)n3)ccc2=O)cc1OC` (centres unmarked) [Compound 181, 5-(2-((3-aminophenyl)sulfinyl)-6-(difluoromethyl)pyrimidin-4-yl)-1-(3,4-dimethoxybenzyl)pyridin-2 (1H)-one], the EC50 is 0.001 to 1 µM.

As for `CNC(=O)CCCS(=O)(=O)c1nc(-c2ccc(=O)n(Cc3ccc(OC)c(OC)c3)c2)cc(C(F)F)n1` [Compound 176, 4-((4-(difluoromethyl)-6-(1-(3,4-dimethoxybenzyl)-6-oxo-1,6-dihydropyridin-3-yl)pyrimidin-2-yl)sulfonyl)-N-methylbutanamide], the EC50 lay within 1 to 10 µM.

`CS(=O)(=O)c1nc(-c2ccn(Cc3cccc(Cl)c3)c2)cc(C(F)(F)F)n1` [Compound 93, 4-(1-(3-chlorobenzyl)-1H-pyrrol-3-yl)-2-(methylsulfonyl)-6-(trifluoromethyl)pyrimidine]: the EC50 was below 100 µM.

Consider `Cc1cc(-c2c[nH]c(=O)c(F)c2)nc(S(=O)(=O)CCC(OCc2ccccc2F)c2ccccc2)n1` (centres unmarked) [Compound 325, 3-fluoro-5-(2-(3-(2-fluorobenzyloxy)-3-phenylpropylsulfonyl)-6-methylpyrimidin-4-yl)pyridin-2 (1H)-one], for which the EC50 was 1 to 10 µM.

For `COc1ccc(Cn2cc(-c3cc(C(F)(F)F)nc([S+]([O-])CCCC(N)=O)n3)ccc2=O)cc1OC` (centres unmarked) [Compound 159, 4-((4-(1-(3,4-dimethoxybenzyl)-6-oxo-1,6-dihydropyridin-3-yl)-6-(trifluoromethyl)pyrimidin-2-yl)sulfinyl)butanamide], the EC50 was below 100 µM.

Consider `COc1ccc(Cn2cc(-c3cc(C(F)(F)F)nc(S(=O)(=O)CCCC(=O)N(C)C)n3)ccc2=O)cc1OC` [Compound 151, 4-((4-(1-(3,4-dimethoxybenzyl)-6-oxo-1,6-dihydropyridin-3-yl)-6-(trifluoromethyl)pyrimidin-2-yl)sulfonyl)-N,N-dimethylbutanamide], for which the EC50 lay within 0.001 to 1 µM.

For the compound `Cc1cc(-c2cc(F)c(=O)n(CC3CCOCC3)c2)nc(S(=O)(=O)CCC(OCc2ccc(F)cc2F)c2ccccc2)n1` (centres unmarked) [Compound 314, 5-(2-(3-(2,4-difluorobenzyloxy)-3-phenylpropylsulfonyl)-6-methylpyrimidin-4-yl)-3-fluoro-1-((tetrahydro-2H-pyran-4-yl)methyl)pyridin-2 (1H)-one], the EC50 lay in the range of 0.001 to 1 µM.

As for `COC(=O)c1ccc(-c2cc(C(F)(F)F)nc([S+](C)[O-])n2)cc1` (centres unmarked) [Compound 62, methyl 4-(2-(methylsulfinyl)-6-(trifluoromethyl)pyrimidin-4-yl)benzoate], the EC50 was below 100 µM.
